{"source": "patent US8252723B2", "about": "“Substituted 1-(3-pyridinyl)pyrazol-4-ylacetic acids, processes for their preparation and their use as herbicides and plant growth regulators” (Bayer CropScience AG, priority 2006, dated 2012)", "data": [{"test_system": "summer wheat of the cultivar 'Triso'", "assay": "Plant growth regulation test: culm stabilization of crop plants", "format": "in vivo", "details": "application rate of 30 to 300 g of active substance per hectare, treated at stage BBCH 31, culm length measured after ears had formed", "method": "With stirring, the compound of the formula (I) in question was, in the form of a water-dispersible powder, together with a surfactant (customary adjuvant at an application rate of 1 l/ha), mixed with water such that a homogenous spray liquor was formed, and applied at an application rate of 300 l of water/ha (converted).\nSeeds of summer wheat of the cultivar ‘Triso’ were sown at a depth of 1 cm in plant pots and cultivated outdoors until treatment.\nThe plants were treated on a laboratory track sprayer with spray liquors of the test substances at macrostage 3 after having reached about 10% of the maximum longitudinal growth typical for the cultivar (stage BBCH 31) and, after the treatment, returned outdoors.\nAfter the ears had formed, the length of the culms were measured. The culm stabilization was evaluated as a percentage of the untreated control.", "values": [{"smiles": "Cc1csc(-c2c(CC(=O)O)c(C)nn2-c2cccnc2)c1", "note": "[Example 1-59]", "longitudinal growth (culm length) of summer wheat": "effectively shortened"}, {"smiles": "Cc1nn(-c2cccnc2)c(-c2ccc(Cl)s2)c1CC(=O)O", "note": "[Example 1-60]", "longitudinal growth (culm length) of summer wheat": "effectively shortened"}, {"smiles": "Cc1ccc(-c2c(CC(=O)O)c(C)nn2-c2cccnc2)s1", "note": "[Example 1-61]", "longitudinal growth (culm length) of summer wheat": "effectively shortened"}, {"smiles": "COc1ccc(-c2c(CC(=O)O)c(C)nn2-c2cccnc2)cn1", "note": "[Example 1-62]", "longitudinal growth (culm length) of summer wheat": "effectively shortened"}, {"smiles": "Cc1nn(-c2cccnc2)c(-c2ccsc2)c1CC(=O)O", "note": "[Example 1-63]", "longitudinal growth (culm length) of summer wheat": "effectively shortened"}, {"smiles": "Cc1nn(-c2cnccc2[S+](C)[O-])c(-c2ccc(Cl)cc2)c1CC(=O)O", "note": "(centres unmarked) [Example 1-64]", "longitudinal growth (culm length) of summer wheat": "effectively shortened"}, {"smiles": "Cc1nn(-c2cccnc2)c(-c2ccc(O)nc2)c1CC(=O)O", "note": "[Example 1-70]", "longitudinal growth (culm length) of summer wheat": "effectively shortened"}, {"smiles": "Cc1nn(-c2cnccc2[S+](C)[O-])c(-c2ccccc2)c1CC(=O)O", "note": "(centres unmarked) [Example 1-71]", "longitudinal growth (culm length) of summer wheat": "effectively shortened"}, {"smiles": "O=C(O)Cc1cnn(-c2cccnc2)c1-c1ccccc1", "note": "[Example 1-72]", "longitudinal growth (culm length) of summer wheat": "effectively shortened"}, {"smiles": "Cc1ccncc1-n1ncc(CC(=O)O)c1-c1ccccc1", "note": "[Example 1-73]", "longitudinal growth (culm length) of summer wheat": "effectively shortened"}, {"smiles": "Cc1nn(-c2cccnc2)c(-c2ccccn2)c1CC(=O)O", "note": "[Example 1-109]", "longitudinal growth (culm length) of summer wheat": "effectively shortened"}, {"smiles": "Cc1nn(-c2cccnc2)c(-c2ccc(Cl)cn2)c1CC(=O)O", "note": "[Example 1-110]", "longitudinal growth (culm length) of summer wheat": "effectively shortened"}, {"smiles": "Cc1ccc(-c2c(CC(=O)O)c(C)nn2-c2cccnc2)nc1", "note": "[Example 1-113]", "longitudinal growth (culm length) of summer wheat": "effectively shortened"}, {"smiles": "Cc1nn(-c2cccnc2)c(-c2ccc(F)cc2)c1CC(=O)O", "note": "[Example 1-120]", "longitudinal growth (culm length) of summer wheat": "effectively shortened"}, {"smiles": "Cc1nn(-c2cccnc2)c(-c2cccnc2)c1CC(=O)O", "note": "[Example 1-125]", "longitudinal growth (culm length) of summer wheat": "effectively shortened"}, {"smiles": "Cc1ccncc1-n1nc(C)c(CC(=O)O)c1-c1ccccn1", "note": "[Example 1-132]", "longitudinal growth (culm length) of summer wheat": "effectively shortened"}, {"smiles": "Cc1ncccc1-n1nc(C)c(CC(=O)O)c1-c1ccccc1", "note": "[Example 1-135]", "longitudinal growth (culm length) of summer wheat": "effectively shortened"}, {"smiles": "Cc1ccnc(-c2c(CC(=O)O)c(C)nn2-c2cccnc2)c1", "note": "[Example 1-136]", "longitudinal growth (culm length) of summer wheat": "effectively shortened"}, {"smiles": "Cc1ccnc(-c2c(CC(=O)O)c(C)nn2-c2cnccc2C)c1", "note": "[Example 1-137]", "longitudinal growth (culm length) of summer wheat": "effectively shortened"}, {"smiles": "Cc1nn(-c2cccnc2)c(-c2ccc(C(F)(F)F)cn2)c1CC(=O)O", "note": "[Example 1-144]", "longitudinal growth (culm length) of summer wheat": "effectively shortened"}, {"smiles": "COc1cccc(-c2c(CC(=O)O)c(C)nn2-c2cccnc2)n1", "note": "[Example 1-145]", "longitudinal growth (culm length) of summer wheat": "effectively shortened"}, {"smiles": "O=C(O)Cc1c(C2CC2)nn(-c2cccnc2)c1-c1ccc(Cl)cc1", "note": "[Example 1-146]", "longitudinal growth (culm length) of summer wheat": "effectively shortened"}, {"smiles": "COC(=O)Cc1c(-c2ccccc2)nn(-c2cccnc2)c1-c1ccccc1", "note": "[Example 2-1]", "longitudinal growth (culm length) of summer wheat": "effectively shortened"}, {"smiles": "COC(=O)Cc1c(C)nn(-c2cccnc2)c1-c1ccccc1", "note": "[Example 2-2]", "longitudinal growth (culm length) of summer wheat": "effectively shortened"}, {"smiles": "COC(=O)Cc1c(C)nn(-c2cccnc2)c1-c1ccco1", "note": "[Example 2-4]", "longitudinal growth (culm length) of summer wheat": "effectively shortened"}, {"smiles": "COC(=O)Cc1c(C)nn(-c2ccc(OC)nc2)c1-c1ccccc1", "note": "[Example 2-5]", "longitudinal growth (culm length) of summer wheat": "effectively shortened"}, {"smiles": "COC(=O)C(C)c1c(C)nn(-c2cnccc2C)c1-c1ccccc1", "note": "(centres unmarked) [Example 2-6]", "longitudinal growth (culm length) of summer wheat": "effectively shortened"}, {"smiles": "COC(=O)Cc1c(C)nn(-c2ccc(Cl)nc2)c1-c1ccccc1", "note": "[Example 2-7]", "longitudinal growth (culm length) of summer wheat": "effectively shortened"}, {"smiles": "COC(=O)Cc1c(C)nn(-c2cnccc2C(F)(F)F)c1-c1ccccc1", "note": "[Example 2-8]", "longitudinal growth (culm length) of summer wheat": "effectively shortened"}, {"smiles": "COC(=O)Cc1c(C)nn(-c2ccc(C(F)(F)F)nc2)c1-c1ccccc1", "note": "[Example 2-9]", "longitudinal growth (culm length) of summer wheat": "effectively shortened"}, {"smiles": "COC(=O)Cc1c(C)nn(-c2ccc(C)nc2C)c1-c1ccccc1", "note": "[Example 2-11]", "longitudinal growth (culm length) of summer wheat": "effectively shortened"}, {"smiles": "COC(=O)Cc1c(C)nn(-c2ccc(Cl)nc2Cl)c1-c1ccccc1", "note": "[Example 2-12]", "longitudinal growth (culm length) of summer wheat": "effectively shortened"}, {"smiles": "COC(=O)Cc1c(C)nn(-c2cnccc2C)c1-c1ccc(OC)cc1", "note": "[Example 2-13]", "longitudinal growth (culm length) of summer wheat": "effectively shortened"}, {"smiles": "COC(=O)Cc1c(C)nn(-c2cccnc2)c1-c1ccc(OC)cc1", "note": "[Example 2-14]", "longitudinal growth (culm length) of summer wheat": "effectively shortened"}, {"smiles": "COC(=O)Cc1c(C)nn(-c2cccnc2)c1-c1ccc(C)cc1", "note": "[Example 2-16]", "longitudinal growth (culm length) of summer wheat": "effectively shortened"}, {"smiles": "COC(=O)Cc1c(C)nn(-c2cccnc2)c1-c1cccc(C(F)(F)F)c1", "note": "[Example 2-18]", "longitudinal growth (culm length) of summer wheat": "effectively shortened"}, {"smiles": "COC(=O)Cc1c(C)nn(-c2cnccc2C)c1-c1cccc(C(F)(F)F)c1", "note": "[Example 2-19]", "longitudinal growth (culm length) of summer wheat": "effectively shortened"}, {"smiles": "COC(=O)Cc1c(C)nn(-c2cnccc2C)c1-c1ccc(Cl)c(Cl)c1", "note": "[Example 2-20]", "longitudinal growth (culm length) of summer wheat": "effectively shortened"}, {"smiles": "COC(=O)Cc1c(C)nn(-c2cnccc2C)c1-c1cccc(Cl)c1", "note": "[Example 2-21]", "longitudinal growth (culm length) of summer wheat": "effectively shortened"}, {"smiles": "COC(=O)Cc1c(C)nn(-c2cnccc2C)c1-c1ccccc1Cl", "note": "[Example 2-22]", "longitudinal growth (culm length) of summer wheat": "effectively shortened"}, {"smiles": "COC(=O)Cc1c(C)nn(-c2cnccc2C)c1-c1ccc(Cl)cc1Cl", "note": "[Example 2-23]", "longitudinal growth (culm length) of summer wheat": "effectively shortened"}, {"smiles": "COC(=O)Cc1c(C)nn(-c2cnccc2C)c1-c1ccc(C(F)(F)F)cc1", "note": "[Example 2-24]", "longitudinal growth (culm length) of summer wheat": "effectively shortened"}, {"smiles": "COC(=O)Cc1c(C)nn(-c2cnccc2C)c1-c1ccc(Cl)cc1", "note": "[Example 2-25]", "longitudinal growth (culm length) of summer wheat": "effectively shortened"}, {"smiles": "COC(=O)Cc1c(C)nn(-c2cccnc2)c1-c1ccc(Cl)cc1", "note": "[Example 2-26]", "longitudinal growth (culm length) of summer wheat": "effectively shortened"}, {"smiles": "COC(=O)Cc1c(C)nn(-c2cccnc2)c1-c1ccc(Cl)c(Cl)c1", "note": "[Example 2-27]", "longitudinal growth (culm length) of summer wheat": "effectively shortened"}, {"smiles": "COC(=O)Cc1c(C)nn(-c2cccnc2)c1-c1ccc(C(F)(F)F)cc1", "note": "[Example 2-28]", "longitudinal growth (culm length) of summer wheat": "effectively shortened"}, {"smiles": "COC(=O)Cc1c(C)nn(-c2cnccc2Cl)c1-c1ccc(Cl)cc1", "note": "[Example 2-29]", "longitudinal growth (culm length) of summer wheat": "effectively shortened"}, {"smiles": "COC(=O)Cc1c(C)nn(-c2cnccc2Cl)c1-c1ccccc1", "note": "[Example 2-30]", "longitudinal growth (culm length) of summer wheat": "effectively shortened"}, {"smiles": "COC(=O)Cc1c(C)nn(-c2cccnc2)c1-c1ccccc1Cl", "note": "[Example 2-31]", "longitudinal growth (culm length) of summer wheat": "effectively shortened"}, {"smiles": "COC(=O)Cc1c(C)nn(-c2cnccc2C)c1-c1ccc(C(C)(C)C)cc1", "note": "[Example 2-32]", "longitudinal growth (culm length) of summer wheat": "effectively shortened"}, {"smiles": "COC(=O)Cc1c(C)nn(-c2cnccc2C)c1-c1cc(C)cc(C)c1", "note": "[Example 2-33]", "longitudinal growth (culm length) of summer wheat": "effectively shortened"}, {"smiles": "COC(=O)Cc1c(C)nn(-c2cnccc2OC)c1-c1ccc(Cl)cc1", "note": "[Example 2-35]", "longitudinal growth (culm length) of summer wheat": "effectively shortened"}, {"smiles": "COC(=O)Cc1c(C)nn(-c2cnccc2C)c1-c1ccc(C)cc1", "note": "[Example 2-36]", "longitudinal growth (culm length) of summer wheat": "effectively shortened"}, {"smiles": "COC(=O)Cc1c(C)nn(-c2cnccc2C)c1-c1ccc(F)cc1", "note": "[Example 2-37]", "longitudinal growth (culm length) of summer wheat": "effectively shortened"}, {"smiles": "COC(=O)Cc1c(C)nn(-c2cnccc2C)c1-c1cccc(C)c1", "note": "[Example 2-38]", "longitudinal growth (culm length) of summer wheat": "effectively shortened"}, {"smiles": "COC(=O)Cc1c(C)nn(-c2cnccc2C)c1-c1cccc(Br)c1", "note": "[Example 2-40]", "longitudinal growth (culm length) of summer wheat": "effectively shortened"}, {"smiles": "COC(=O)Cc1c(C)nn(-c2cnccc2C)c1-c1ccc(-c2ccccc2)cc1", "note": "[Example 2-41]", "longitudinal growth (culm length) of summer wheat": "effectively shortened"}, {"smiles": "COC(=O)Cc1c(C)nn(-c2cccnc2)c1-c1cc(C)cc(C)c1", "note": "[Example 2-43]", "longitudinal growth (culm length) of summer wheat": "effectively shortened"}, {"smiles": "COC(=O)Cc1c(C)nn(-c2cnccc2SC)c1-c1ccccc1", "note": "[Example 2-44]", "longitudinal growth (culm length) of summer wheat": "effectively shortened"}, {"smiles": "COC(=O)Cc1c(C)nn(-c2cnccc2SC)c1-c1ccc(Cl)cc1", "note": "[Example 2-45]", "longitudinal growth (culm length) of summer wheat": "effectively shortened"}, {"smiles": "COC(=O)Cc1c(C)nn(-c2cccnc2)c1-c1ccc(C)c(Cl)c1", "note": "[Example 2-46]", "longitudinal growth (culm length) of summer wheat": "effectively shortened"}, {"smiles": "COC(=O)Cc1c(C)nn(-c2cccnc2)c1-c1ccc(Cl)c(C(F)(F)F)c1", "note": "[Example 2-47]", "longitudinal growth (culm length) of summer wheat": "effectively shortened"}, {"smiles": "COC(=O)Cc1c(C)nn(-c2cnccc2C)c1-c1ccc(Cl)c(C(F)(F)F)c1", "note": "[Example 2-48]", "longitudinal growth (culm length) of summer wheat": "effectively shortened"}, {"smiles": "COC(=O)Cc1c(C)nn(-c2cnccc2C)c1-c1ccc(C)c(Cl)c1", "note": "[Example 2-49]", "longitudinal growth (culm length) of summer wheat": "effectively shortened"}, {"smiles": "COC(=O)Cc1c(C)nn(-c2cncc(C)c2)c1-c1ccccc1", "note": "[Example 2-50]", "longitudinal growth (culm length) of summer wheat": "effectively shortened"}]}]}
